What was measured:
Assay in all cases: relative IC50 (inflection point of fitted viability curve, relative to fitted max inhibition); higher = less sensitive
Settings in all cases: 72 h
DERL-7 (IL-2 2.5 ng/mL) = test system: DERL-7 (IL-2 2.5 ng/mL)
Description: (§1)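 Drug sensitivity and resistance testing: 5 concentrations over a 10,000-fold range, 72 h at 37 °C, viability by CellTiter-Glo normalised to DMSO and benzethonium chloride controls. IC50 is the inflection point of a logistic fit (min fixed at 0, max fitted), so it is relative to the fitted maximal inhibition. Kept only where fitted max inhibition is at least 50%.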

IMC-1 (IL-2 20 ng/mL) = test system: IMC-1 (IL-2 20 ng/mL)
Description: as §1

KAI3 (IL-2 2.5 ng/mL) = test system: KAI3 (IL-2 2.5 ng/mL)
Description: as §1

KHYG-1 (IL-2 2.5 ng/mL) = test system: KHYG-1 (IL-2 2.5 ng/mL)
Description: as §1

NK-92 (IL-2 2.5 ng/mL) = test system: NK-92 (IL-2 2.5 ng/mL)
Description: as §1

NK-YS (IL-2 2.5 ng/mL) = test system: NK-YS (IL-2 2.5 ng/mL)
Description: as §1

NKL (IL-2 2.5 ng/mL) = test system: NKL (IL-2 2.5 ng/mL)
Description: as §1

SNK-6 (IL-2 2.5 ng/mL) = test system: SNK-6 (IL-2 2.5 ng/mL)
Description: as §1

YT (IL-2 2.5 ng/mL) = test system: YT (IL-2 2.5 ng/mL)
Description: as §1

[1] = test system: normal primary NK cells, pool 1 (3 donors), resting (IL-2 0 ng/mL)
Description: as §1

[2] = test system: normal primary NK cells, pool 2 (3 donors) (IL-2 2.5 ng/mL)
Description: as §1

[3] = test system: normal primary NK cells, pool 3 (3 donors) (IL-2 2.5 ng/mL)
Description: as §1

[4] = test system: normal primary NK cells, pool 1 (3 donors) (IL-2 2.5 ng/mL)
Description: as §1

SMILES	relative IC50 (DERL-7 (IL-2 2.5 ng/mL)) [nM]	relative IC50 (IMC-1 (IL-2 20 ng/mL)) [nM]	relative IC50 (KAI3 (IL-2 2.5 ng/mL)) [nM]	relative IC50 (KHYG-1 (IL-2 2.5 ng/mL)) [nM]	relative IC50 (NK-92 (IL-2 2.5 ng/mL)) [nM]	relative IC50 (NK-YS (IL-2 2.5 ng/mL)) [nM]	relative IC50 (NKL (IL-2 2.5 ng/mL)) [nM]	relative IC50 (SNK-6 (IL-2 2.5 ng/mL)) [nM]	relative IC50 (YT (IL-2 2.5 ng/mL)) [nM]	relative IC50 [1] [nM]	relative IC50 [2] [nM]	relative IC50 [3] [nM]	relative IC50 [4] [nM]
O=C(NOCC1CC1)c1ccc(F)c(F)c1Nc1ccc(I)cc1Cl	1310	2220	608	851	3220	1650	153	3940	1850				
C/C(=C\c1csc(C)n1)[C@@H]1C[C@@H]2O[C@]2(C)CCC[C@H](C)[C@H](O)[C@@H](C)C(=O)C(C)(C)[C@@H](O)CC(=O)O1 [Patupilone]	2.74	3.36	6.77	15.2	6.8	11.7	12.4	2.61	8.42				
CCC1=C[C@@H]2CN(C1)Cc1c([nH]c3ccccc13)[C@@](C(=O)OC)(c1cc3c(cc1OC)N(C)[C@H]1[C@@](O)(C(=O)OC)[C@H](OC(C)=O)[C@]4(CC)C=CCN5CC[C@]31[C@@H]54)C2 [Vinorelbine]	5.07	3.26	7.28	8.26	23.2	5.98	3.89	2.95	7.29	1460			
O=C(c1cccc(Cl)c1F)N1CCN(Cc2cccc(Nc3nccs3)n2)CC1 [MK-8745]	376	709				203		204			> 2500	> 2500	
Cc1ccc(C(=O)N(CCCN)[C@@H](c2oc3cc(Cl)ccc3c(=O)c2Cc2ccccc2)C(C)C)cc1	21.8	3.17	10.9	3.04	20.9	3.75	5.2	4.13	24.2				
C#Cc1cccc(Nc2ncnc3cc(OCCOC)c(OCCOC)cc23)c1 [Erlotinib]			1300							3360			
O=C(c1cc(Cc2n[nH]c(=O)c3ccccc23)ccc1F)N1CCN(C(=O)C2CC2)CC1 [Olaparib]		1610	1260	2020	1560	1620	237	1670					
Cc1cc(Nc2cc(N3CCN(C)CC3)nc(Sc3ccc(NC(=O)C4CC4)cc3)n2)n[nH]1 [Tozasertib]	46.3	283	349	193	636	51		50.2					
CO[C@@]12[C@H](COC(N)=O)C3=C(C(=O)C(C)=C(N)C3=O)N1C[C@@H]1N[C@@H]12 [Mitomycin C]		2710	1060	432	1510	350	152	423	3200	1630	1010	1410	
Cn1nnc2c(C(N)=O)ncn2c1=O [Temozolomide]		15800					25700	1610		> 100000			
CC(C)n1nc(-c2ccc3oc(N)nc3c2)c2c(N)ncnc21 [INK128]	15.1		22.8	124	21.7	51	8.91		28.2				
C/C(=C\c1csc(C)n1)[C@@H]1C[C@@H]2O[C@]2(C)CCC[C@H](C)[C@H](O)[C@@H](C)C(=O)C(C)(C)[C@@H](O)CC(=O)N1 [Ixabepilone]	335	360	383	301	398	348	357	348	308	> 1000			> 1000
C[C@@H]1COC(Nc2ccc3ncnc(Nc4ccc(OCc5nccs5)c(Cl)c4)c3c2)=N1 [Varlitinib]										> 10000			
CC(C)(C#N)c1cc(Cn2cncn2)cc(C(C)(C)C#N)c1 [Anastrozole]		> 10000		> 10000		> 10000					> 10000	> 10000	
c1cc(CN2CCCNCCNCCCNCC2)ccc1CN1CCCNCCNCCCNCC1 [Plerixafor]											> 10000	> 10000	
COc1cc2c(N3CCN(C(=O)Nc4ccc(OC(C)C)cc4)CC3)ncnc2cc1OCCCN1CCCCC1 [Tandutinib]												> 1000	
CS(=O)(=O)c1ccc(C2=C(c3ccccc3)C(=O)OC2)cc1 [Rofecoxib]										> 10000		> 10000	
Nc1ccn([C@@H]2O[C@H](CO)[C@@H](O)C2(F)F)c(=O)n1 [Gemcitabine]	10.9	3.08	5.17	2.14	2.77	4.67	0.73	6.48	15.3				
Nc1cccc2c1CN(C1CCC(=O)NC1=O)C2=O (centres undefined) [Lenalidomide]	> 100000		17100					3460		6060			
O=C(NOC[C@H](O)CO)c1ccc(F)c(F)c1Nc1ccc(I)cc1F	10			31.6	> 1000		19.9					> 1000	
CN1CCc2c(c3ccccc3n2Cc2ccc(C(=O)NO)cc2)C1 [Tubastatin A]	3400	3270	1170	2550	1580	1810	1030	1430	2420	1510			1790
C[C@]12C=CC(=O)C=C1CC[C@@H]1[C@@H]2C(=O)C[C@@]2(C)[C@H]1CC[C@]2(O)C(=O)CO [Prednisone]											> 10000		
COc1cc2c(Oc3ccc(NC(=O)C4(C(=O)Nc5ccc(F)cc5)CC4)cc3F)ccnc2cc1OCCCN1CCOCC1 [Foretinib]	369					191							
COc1cc2ncnc(Nc3ccc(F)c(Cl)c3)c2cc1NC(=O)/C=C/CN1CCCCC1 [Dacomitinib]										404			
CN(C)/N=N/c1[nH]cnc1C(N)=O [Dacarbazine]	> 10000				> 10000				2970	> 10000	> 10000		
O=C(Nc1c[nH]nc1-c1nc2ccc(CN3CCOCC3)cc2[nH]1)NC1CC1 [AT9283]	41.1	78	69.8	47.2	65.8	41.9	85.5	39.7	135	> 1000			
O=NN(CCCl)C(=O)NC1CCCCC1 [Lomustine]	> 10000	> 10000			> 10000		> 10000				> 10000	> 10000	> 10000
CCN(CC)CCCC(C)Nc1ccnc2cc(Cl)ccc12 (centres undefined) [Chloroquine]		33400									14300	9060	
Oc1c2ccccc2c2c3c(cccc13)N=N2	2570		10600	9700	4980	13200	4960	12200					11000

From the supplement of paper PMC5908809
